Source: patent US20260125335A1, “SYNTHETIC C[…], PHARMACEUTICAL COMPOSITIONS, AND METHODS OF TREATING BACTERIAL INFECTIONS AND OTHER DISORDERS” (priority 2023, published 2026)
Converted amounts (≈) assume the structure as drawn. Where two headings read alike, the source gives them in different places.

What was measured:
Format in all cases: cell-based
[1] = test system: Streptococcus oralis; test: Broth microdilution MIC assay, Streptococcus oralis; conditions: type ERYR
Method: (§1) This example illustrates evaluating in vitro activity of (Z)-2-(3,6-dimethylhepta-2,5-dien-1-yl)-5-pentylbenzene-1,3-diol (Example 1, “M194”) against gram-positive and gram-negative bacteria. In this study, in vitro activity was determined against a diverse panel of Gram-positive and Gram-negative bacteria associated with a variety of infections. Broth microdilution MIC assays were conducted following guidelines recommended by the Clinical and Laboratory Standards Institute (CLSI; 1-3).
(§2) The compound M194 was provided in powder form and initially stored at room temperature prior to testing. A stock solution of M194 in DMSO/DMSO solvent/diluent was made at 101× the final testing concentration and tested over ranges of 0.06-64 μg/mL.
(§3) Test organisms consisted of isolates from the American Type Culture Collection (ATCC; Manassas, VA) and the Micromyx Repository (MMX; Kalamazoo, MI). Upon initial receipt at Microbiologics, the organisms were sub-cultured onto an appropriate agar medium and incubated under atmospheric conditions required for growth. Following incubation for 18 to 24 hr at 35° C. in the appropriate atmosphere, colonies were harvested from these plates and cell suspensions were prepared and frozen at −80° C. with a cryoprotectant. Prior to testing, isolates were streaked from frozen vials onto the appropriate agar. […]

[2] = test system: Klebsiella pneumoniae; test: Broth microdilution MIC assay, Klebsiella pneumoniae
Method: as §1, §2, §3

[3] = test system: Enterobacterales; test: Broth microdilution MIC assay, Enterobacterales; conditions: any of the Enterobacterales
Method: as §1, §2, §3

[4] = test system: Acinetobacter baumannii; test: Broth microdilution MIC assay, Acinetobacter baumannii
Method: as §1, §2
(§4) Test organisms consisted of isolates from the American Type Culture Collection (ATCC; Manassas, VA) and the Micromyx Repository (MMX; Kalamazoo, MI). Upon initial receipt at Microbiologics, the organisms were sub-cultured onto an appropriate agar medium and incubated under atmospheric conditions required for growth. Following incubation for 18 to 24 hr at 35° C. in the appropriate atmosphere, colonies were harvested from these plates and cell suspensions were prepared and frozen at −80° C. with a cryoprotectant. Prior to testing, isolates were streaked from frozen vials onto the appropriate agar. Unless otherwise noted, Trypticase Soy Agar with 5% sheep blood (Remel; Lenexa, KS; Lot No. 693244) was used and inoculated plates were incubated at 35° C. overnight in ambient atmosphere. Haemophilus influenzae isolates were streaked onto Chocolate agar (Becton Dickinson [BD]; Sparks, MD; Lot No. 3157581). Streptococcus spp., Moraxella spp., and H. influenzae inoculated plates were incubated at 35° C. overnight in 5% CO2.
(§5) Organisms were tested in the appropriate media according to CLSI guidelines (1-3). […]

[5] = test system: Staphylococcus saprophyticus; test: Broth microdilution MIC assay, Staphylococcus saprophyticus; conditions: type MSS
Method: as §1, §2, §3

[6] = test system: Listeria monocytogenes; test: Broth microdilution MIC assay, Listeria monocytogenes; conditions: type —
Method: as §1, §2, §3

[7] = test system: Streptococcus constellatus; test: Broth microdilution MIC assay, Streptococcus constellatus; conditions: type —
Method: as §1, §2, §3

[8] = test system: Serratia marcescens; test: Broth microdilution MIC assay, Serratia marcescens; conditions: type —
Method: as §1, §2, §3

[9] = test system: Staphylococcus epidermidis; test: Broth microdilution MIC assay, Staphylococcus epidermidis
Method: as §1, §2, §3

[10] = test system: Streptococcus pyogenes; test: Broth microdilution MIC assay, Streptococcus pyogenes
Method: as §1, §2, §3

[11] = test system: Citrobacter freundii; test: Broth microdilution MIC assay, Citrobacter freundii; conditions: type —
Method: as §1, §2, §3

[12] = test system: Enterobacter cloacae; test: Broth microdilution MIC assay, Enterobacter cloacae; conditions: type —
Method: as §1, §2, §3

[13] = test system: Streptococcus spp. and L. monocytogenes; test: Broth microdilution MIC assay, Streptococcus spp. and L. monocytogenes; conditions: all Streptococcus spp., compared with Staphylococcus spp. and Enterococcus spp.
Method: as §1, §2, §3

[14] = test system: Proteus mirabilis; test: Broth microdilution MIC assay, Proteus mirabilis; conditions: type —
Method: as §1, §2, §3

[15] = test system: Moraxella catarrhalis; test: Broth microdilution MIC assay, Moraxella catarrhalis
Method: as §1, §2, §3

[16] = test system: Pseudomonas aeruginosa; test: Broth microdilution MIC assay, Pseudomonas aeruginosa; conditions: for MIC: Pseudomonas aeruginosa
Method: as §1, §2, §4, §5

[17] = test system: Haemophilus influenzae; test: Broth microdilution MIC assay, Haemophilus influenzae; conditions: for MIC: Haemophilus influenzae
Method: as §1, §2, §4, §5

[18] = test system: Escherichia coli; test: Broth microdilution MIC assay, Escherichia coli
Method: as §1, §2, §4, §5

[19] = test system: Staphylococcus aureus; test: Broth microdilution MIC assay, Staphylococcus aureus
Method: as §1, §2, §4
(§6) Organisms were tested in the appropriate media according to CLSI guidelines (1-3). Cation-Adjusted Mueller Hinton broth (CAMHB) was made by supplementing Mueller Hinton Broth (MHB; BD; Lot No. 1285575) to a final concentration of 20 mg/L Ca++ (Sigma; St. Louis, MO; Lot. No. 084K0215) and 12.5 mg/L Mg++ (VWR; Radnor, PA; Lot. No. 22C0856290). CAMHB was used for broth microdilution testing except for isolates requiring specialized media as described below.
(§7) The MIC assay method followed the procedures described by CLSI and employed automated liquid handlers to conduct serial dilutions and liquid transfers. Automated liquid handlers included the Multidrop Combi (ThermoScientific), Biomek 3000, and Biomek FX (Beckman Coulter; Fullerton, CA).
(§8) The wells in columns 2 through 12 in standard 96-well microdilution plates (Costar 3795) were filled with 150 μl of the appropriate diluent. These would become the “mother plates” from which “daughter,” or test plates, would be prepared. […]

[20] = test system: Enterococcus faecium; test: Broth microdilution MIC assay, Enterococcus faecium
Method: as §1, §2, §3

[21] = test system: Staphylococcus spp. and Enterococcus spp.; test: Broth microdilution MIC assay, Staphylococcus spp. and Enterococcus spp.; conditions: all Staphylococcus spp.
Method: as §1, §2, §3

[22] = test system: Streptococcus mutans; test: Broth microdilution MIC assay, Streptococcus mutans; conditions: type —
Method: as §1, §2, §3

[23] = test system: Streptococcus agalactiae; test: Broth microdilution MIC assay, Streptococcus agalactiae
Method: as §1, §2, §3

[24] = test system: Neisseria gonorrhoeae; test: Broth microdilution MIC assay, Neisseria gonorrhoeae
Method: as §1, §2, §3

[25] = test system: Enterococcus faecalis; test: Broth microdilution MIC assay, Enterococcus faecalis
Method: as §1, §2, §4, §6, §7, §8

In the case of CCCCCc1cc(O)c(C/C=C(/C)CC=C(C)C)c(O)c1 [Example M194, (Z)-2-(3,6-dimethylhepta-2,5-dien-1-yl)-5-pentylbenzene-1,3-diol], the MIC [1] is reported as 32 µg/mL (≈ 106 µM), the MIC ([2]; type QC, read-out: MIC) is reported as over 64 µg/mL and the MIC ([2]; type —) is reported as over 64 µg/mL. For the same molecule, the “in vitro activity (in words)” value [3] was “not active”, the “in vitro activity (in words)” value [4] was “not active” and the MIC ([4]; type MDR) was over 64 µg/mL. The MIC ([4]; type —, read-out: MIC) was over 64 µg/mL, the MIC [5] was 2 µg/mL (≈ 6.61 µM) and the MIC [6] was 32 µg/mL (≈ 106 µM). The MIC [7] was 16 µg/mL (≈ 52.9 µM), the MIC [8] was over 64 µg/mL and the MIC ([9]; type MRSE) was 1 µg/mL (≈ 3.31 µM). The MIC ([9]; type MSSE) was 1 µg/mL (≈ 3.31 µM), the MIC ([10]; type ERYR) was 16 µg/mL (≈ 52.9 µM) and the MIC ([10]; type —, read-out: MIC) was 16 µg/mL (≈ 52.9 µM). The MIC [11] was over 64 µg/mL, the MIC [12] was over 64 µg/mL and the “in vitro activity (in words)” value [13] was “to a lesser degree”. The MIC [14] was over 64 µg/mL, the “in vitro activity (in words)” value [15] was “had activity” and the MIC ([15]; type BL+) was 2 µg/mL (≈ 6.61 µM). For the same molecule, the “in vitro activity (in words)” value ([16]; P. aeruginosa) was “not active”, the MIC ([16]; type MDR, VIM) was over 64 µg/mL and the MIC ([16]; type QC, read-out: MIC) was over 64 µg/mL. For the same molecule, the MIC ([17]; ATCC49247, type QC (ATCC 49247 isolate)) was 4 µg/mL (≈ 13.2 µM), the “in vitro activity (in words)” value ([17]; H. influenzae) was “had activity” and the MIC ([17]; type BL+ (beta-lactamase positive isolate MMX 7988)) was 32 µg/mL (≈ 106 µM). It also gave an MIC ([18]; type ESBL) of over 64 µg/mL, an MIC ([18]; type NDM-1) of over 64 µg/mL and an MIC ([18]; type QC, read-out: MIC) of over 64 µg/mL. The MIC ([19]; MRSA, type MRSA, read-out: MIC) was 1 µg/mL (≈ 3.31 µM), the MIC ([19]; MSSA, type MSSA, QC, read-out: MIC) was 2 µg/mL (≈ 6.61 µM) and the MIC ([19]; MSSA, type MSSA, read-out: MIC) was 1 µg/mL (≈ 3.31 µM). For the same molecule, the MIC ([19]; VISA, type VISA) was 2 µg/mL (≈ 6.61 µM), the MIC ([20]; type vanA) was 1 µg/mL (≈ 3.31 µM) and the MIC ([20]; type —, read-out: MIC) was 1 µg/mL (≈ 3.31 µM). The “in vitro activity (in words)” value [21] was “had activity”, the MIC [22] was 32 µg/mL (≈ 106 µM) and the MIC ([23]; type MLS) was 16 µg/mL (≈ 52.9 µM). The MIC ([23]; type —, read-out: MIC) was 16 µg/mL (≈ 52.9 µM), the “in vitro activity (in words)” value ([24]; N. gonorrhoeae) was “had activity” and the MIC ([24]; Neisseria gonorrhoeae, type QC) was 1 µg/mL (≈ 3.31 µM). For the same molecule, the MIC ([25]; type VSE, QC, read-out: MIC) was 2 µg/mL (≈ 6.61 µM), the MIC ([25]; type VSE, read-out: MIC) was 1 µg/mL (≈ 3.31 µM) and the MIC ([25]; type vanA) was 1 µg/mL (≈ 3.31 µM). The MIC ([25]; type vanB) was 1 µg/mL (≈ 3.31 µM).
